Reference: patent publication US20240156971A1, “METHODS AND SORTILIN BINDING CONJUGATE COMPOUNDS FOR TARGETING CANCER STEM CELLS” (TRANSFERT PLUS, SOCIÉTÉ EN COMMANDITE, priority 2021, published 2024)
Square brackets hold non-standard residues; d marks the D form. Ends that are not written are not given here. Nle = CCCC[C@H](N)C(=O)O

Key:
hBCSCs [1] = assay: Confocal microscopy of hBCSCs (DAPI, anti-α-tubulin); format: cell-based, human; conditions: 4 μM docetaxel or 2 μM TH1902, 48 hours post-treatment; for appearance of fragmented nuclei: DAPI
Procedure: Effects of Docetaxel and TH1902 on Tubulin Polymerization. hBCSCs were grown to 80% confluence on pre-coated 18 mm microscope cover slips (Celprogen, #E36102-29-CS18), rinsed with PBS and exposed to serum-free culture medium containing vehicle (DMSO), 4 μM docetaxel or 2 μM TH1902 at 37° C. Following incubation for 2 hours the cells were rinsed with complete culture medium and incubated in fresh complete medium for 48 hours. Cells were then washed with PHEM buffer (60 mM Pipes, 25 mM HEPES, 10 mM EGTA and 2 mM MgCl2, pH 6.9) and fixed for 15 minutes with 4% paraformaldehyde, then permeabilized with 1% Triton™ X-100 in PHEM buffer for 5 minutes and washed again with PHEM buffer. The cells were blocked in PBS (2.6 mM KCl, 1.4 mM KH2PO4, 136.9 mM NaCl and 6.5 mM Na2HPO4·7H2O; pH 7.2) containing 10% normal goat serum and 0.05% Triton™ and then incubated for 1 hour with 1:2000 anti-α-Tubulin primary monoclonal antibody (clone B-5-1-2, Sigma-Aldrich; #T5168) diluted in washing buffer (PBS containing 5% normal goat serum and 0.025% Triton). Cells were washed with washing buffer and incubated for 1 hour with Alexa Fluor™ 488-conjugated goat anti-mouse secondary antibody (1:1000; Invitrogen; #A-11001), washed with diluted blocking buffer, stained with DAPI ([…] in PBS, Invitrogen; #D1306) for 3 minutes, washed again in washing blocking buffer and mounted onto slides using Prolong™ Gold antifade reagent (Invitrogen, P36934). Cell images were finally digitalized by confocal microscopy (Nikon A1) and analyzed using NIH ImageJ™ Version 1.4.21 software. The excitation and emission wavelengths used for Alexa Fluor™ 488 were 488 nm and 525 nm, respectively; the excitation and emission wavelengths used for DAPI were 404 nm and 450 nm, respectively.

hBCSCs [2] = assay: Cell cycle analysis (G2/M) of hBCSCs; format: cell-based, human; conditions: 2 h with 4 μM docetaxel or 2 μM TH1902, then 22 h or 48 h
Procedure: (§1) Cell Cycle Analysis Following Treatment of hBCSC by Test Articles. hBCSCs (2.8×10^5 cells/well) and MDA-MB-231/luc cells (2.3×10^5 cells/well) were seeded in 6-well plates one day prior to treatment. To test the effects of Docetaxel and TH1902 on cell cycle phases, hBCSCs and MDA-MB-231/luc cells were treated for 2 hours in serum-free media with vehicle (DMSO), 4 μM docetaxel or 2 μM TH1902 (equimolar of docetaxel), rinsed with complete media and incubated in fresh complete media for 22 and 48 hours. For the experiments with the P-gp inhibitors, hBCSCs were first pre-treated for 30 minutes in serum-free media with vehicle (DMSO), or 10 μM cyclosporine A or PSC-833 (P-gp inhibitors). Next, cells were treated for 2 hours with 4 μM docetaxel or 2 μM TH1902 in the continued presence or absence of the P-gp inhibitors before being rinsed and incubated in fresh complete media in the continued presence or absence of the P-gp inhibitors. Cells were then incubated for 22 and 48 hours. In both assays, following the incubation, cells were detached with trypsin, fixed with ice-cold 70% EtOH and kept overnight at 4° C. Cells were washed once with PBS, after which they were stained for 30 minutes at room temperature with FxCycle™ PI/RNase Staining Solution (Thermo Scientific, Waltham, MA; #F10797). Cells were finally subjected to cell cycle analysis using a BD Accuri™ C6 flow cytometer.

hBCSCs [3] = assay: Cell cycle analysis (G2/M) of hBCSCs with or without P-gp inhibitors; format: cell-based, human
Procedure: as §1

ovarian hOCSC xenografts = assay: hOCSC xenografts treated with single agents or combined with carboplatin; format: in vivo, mice; conditions: for inhibition of tumor growth, single agent: docetaxel 10 mg/kg, TH1902 23 mg/kg, paclitaxel 10 mg/kg, carboplatin 40 mg/kg, day 18
Procedure: Mice bearing ovarian hOCSC xenografts were treated with vehicle, docetaxel, paclitaxel, TH1902 or carboplatin, and other groups of mice were administered carboplatin in combination with either docetaxel, paclitaxel or TH1902. To minimize the risk of side effects resulting from combining treatments, the dosages used for each drug were reduced to the following: docetaxel 10 mg/kg; TH1902 23 mg/kg (equivalent to the docetaxel dosage); paclitaxel 10 mg/kg; carboplatin 40 mg/kg (unchanged).

Acetyl-GVRAK(docetaxel)AGVRN(Nle)FK(docetaxel)SESY (Ac-GVRAK(docetaxel)AGVRN[Nle]FK(docetaxel)SESY) [TH1902]
cell morphology change versus vehicle-treated cells (hBCSCs [1]): visible morphology change
enlargement of cells and re-organization of the microtubules (tubulin labelling) (hBCSCs [1]): more evident
appearance of fragmented nuclei (hBCSCs [1]): fragmented nuclei in many of the cells
G2/M cell cycle arrest (hBCSCs [2]): significant increase in G2/M cell cycle arrest
G2/M cell cycle arrest in the presence of CsA (hBCSCs [3]; 10 μM CsA, 4 μM docetaxel or 2 μM TH1902): no effect
G2/M cell cycle arrest in the presence of PCC-831 (hBCSCs [3]; 10 μM inhibitor, 4 μM docetaxel or 2 μM TH1902): no effect
proportion of cells in G2/M phase (hBCSCs [3]; no efflux inhibitor, 4 μM docetaxel or 2 μM TH1902, FIG. 6C-D): strong increase in the proportion of cells in G2/M phase
inhibition of tumor growth, single agent (ovarian hOCSC xenografts): much greater than that of either taxanes
inhibition of tumor growth, combined with carboplatin (ovarian hOCSC xenografts; plus carboplatin 40 mg/kg intraperitoneal, vs the agent alone): slightly increased

CC(=O)O[C@@]12CO[C@@H]1C[C@H](O)[C@@]1(C)C(=O)[C@H](O)C3=C(C)[C@@H](OC(=O)[C@H](O)[C@@H](NC(=O)OC(C)(C)C)c4ccccc4)C[C@@](O)([C@@H](OC(=O)c4ccccc4)[C@H]21)C3(C)C [docetaxel, reference compound]
cell morphology change versus vehicle-treated cells (hBCSCs [1]): visible morphology change
enlargement of cells and re-organization of the microtubules (tubulin labelling) (hBCSCs [1]): present in some
appearance of fragmented nuclei (hBCSCs [1]): not seen
G2/M cell cycle arrest (hBCSCs [2]): not
inhibition of tumor growth, single agent (ovarian hOCSC xenografts): clearly inferior to that of TH1902
